The results in this text go back to US8674109B2, “Pesticidal compositions” (Dow AgroSciences, LLC., priority 2009, dated 2014).

Structures are written as SMILES.

What all share (format): in vivo
Series [1] has as its system beet armyworm (BAW; Spodoptera exigua: Lepidoptera). The series can be described thus: Insecticidal test for beet armyworm, 128-well diet tray assay. The method, boiled down:
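Three to five second-instar larvae per well fed on artificial diet surface-treated with 50 μg/cm^2 compound (applied in 90:10 acetone-water, dried). Trays were held six days at 25 °C, 14:10 light-dark. Percent mortality was averaged across eight wells.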

Series [2] relates to corn earworm (CEW; Helicoverpa zea: Lepidoptera). The series is described as follows: Insecticidal test for corn earworm, 128-well diet tray assay. The procedure, abridged: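 Second-instar larvae, three to five per well, placed on artificial diet treated with 50 μg/cm^2 compound applied in 90:10 acetone-water and dried. Held six days at 25° C., 14:10 light-dark. Percent mortality scored per well and averaged over eight wells.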

The test system of series [3] is green peach aphid (Myzus persicae). The series can be described thus: Insecticidal test for green peach aphid in foliar spray assay on cabbage seedlings. The procedure, abridged: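 Cabbage seedlings carrying 20-50 aphids (adults and nymphs) were sprayed to runoff with compound at 200 ppm in acetone/methanol diluted in 0.025% Tween 20, with four pots per treatment. After three days at about 25 °C and 40% RH, live aphids were counted. Percent control was Abbott-corrected against solvent-check plants.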

Regarding `O=C(Nc1ccc(-c2ncn(-c3ccc(OC(F)(F)F)cc3)n2)cc1)OCc1c(Cl)cccc1Cl` [Compound 111], in series [1], the “% Mortality BAW 50 μg/cm^2” value is on record as “B (Less than 50)”. In addition, the “% Mortality CEW 50 μg/cm^2” value in series [2] is reported as “A (50-100)”. In series [3], the “% Mortality GPA 200 ppm” value is reported as “B (Less than 80)”.
On the same counts, the results for `N#CC(OC(=O)Nc1ccc(-c2ncn(-c3ccc(OC(F)(F)F)cc3)n2)cc1)c1ccccc1` (stereo not drawn) [Compound 112] are “A (50-100)”, “A (50-100)” and “B (Less than 80)”.
For `CCC(CC)OC(=O)Nc1ccc(-c2ncn(-c3ccc(OC(F)(F)F)cc3)n2)cc1` [Compound 113], the “% Mortality BAW 50 μg/cm^2” value in series [1] was “A (50-100)”. The “% Mortality CEW 50 μg/cm^2” value in series [2] is recorded as “A (50-100)”. Moreover, in series [3], the “% Mortality GPA 200 ppm” value is recorded as “B (Less than 80)”.
On to `CC(OC(=O)Nc1ccc(-c2ncn(-c3ccc(OC(F)(F)F)cc3)n2)cc1)c1c(F)c(F)c(F)c(F)c1F` (stereo not drawn) [Compound 114], for which the “% Mortality BAW 50 μg/cm^2” value in series [1] was “A (50-100)”. For the same compound, the “% Mortality CEW 50 μg/cm^2” value in series [2] is “B (Less than 50)”. Further, in series [3], the “% Mortality GPA 200 ppm” value was “B (Less than 80)”.
Regarding `CC(OC(=O)Nc1ccc(-c2ncn(-c3ccc(OC(F)(F)F)cc3)n2)cc1)c1ccc(C(F)(F)F)cc1C(F)(F)F` (stereo not drawn) [Compound 115], in series [1], the “% Mortality BAW 50 μg/cm^2” value is “B (Less than 50)”. Moreover, in series [2], the “% Mortality CEW 50 μg/cm^2” value is reported as “B (Less than 50)”. In addition, the “% Mortality GPA 200 ppm” value in series [3] is on record as “B (Less than 80)”.
Turning to `CC(OC(=O)Nc1ccc(-c2ncn(-c3ccc(OC(F)(F)F)cc3)n2)cc1)c1ccc(-c2ccccc2)cc1` (stereo not drawn) [Compound 116], the “% Mortality BAW 50 μg/cm^2” value in series [1] is “B (Less than 50)”. Also, the “% Mortality CEW 50 μg/cm^2” value in series [2] was “A (50-100)”. The “% Mortality GPA 200 ppm” value in series [3] was “B (Less than 80)”.
The matching figures for `CC(OC(=O)Nc1ccc(-c2ncn(-c3ccc(OC(F)(F)F)cc3)n2)cc1)c1ccc(F)cn1` (stereo not drawn) [Compound 117]: “A (50-100)”, “A (50-100)” and “B (Less than 80)”.
The matching figures for `CC(OC(=O)Nc1ccc(-c2ncn(-c3ccc(OC(F)(F)F)cc3)n2)cc1)c1ccc(Cl)cn1` (stereo not drawn) [Compound 118]: “A (50-100)”, “A (50-100)” and “B (Less than 80)”.
For the compound `COc1ccc(C(C)OC(=O)Nc2ccc(-c3ncn(-c4ccc(OC(F)(F)F)cc4)n3)cc2)nc1` (stereo not drawn) [Compound 119], the “% Mortality BAW 50 μg/cm^2” value in series [1] is recorded as “A (50-100)”. For the same compound, the “% Mortality CEW 50 μg/cm^2” value in series [2] was “A (50-100)”. Also, the “% Mortality GPA 200 ppm” value in series [3] was “B (Less than 80)”.
Consider `CC(OC(=O)Nc1ccc(-c2ncn(-c3ccc(OC(F)(F)F)cc3)n2)cc1)c1cccc(Cl)n1` (stereo not drawn) [Compound 120], for which, in series [1], the “% Mortality BAW 50 μg/cm^2” value is “A (50-100)”. Also, the “% Mortality CEW 50 μg/cm^2” value in series [2] is recorded as “A (50-100)”. For the same compound, the “% Mortality GPA 200 ppm” value in series [3] is “B (Less than 80)”.
As to `Cc1cc(C)c(CCOC(=O)Nc2ccc(-c3ncn(-c4ccc(OC(F)(F)F)cc4)n3)cc2)c(C)c1` [Compound 121], the “% Mortality BAW 50 μg/cm^2” value in series [1] is reported as “B (Less than 50)”. In addition, in series [2], the “% Mortality CEW 50 μg/cm^2” value is reported as “A (50-100)”. The “% Mortality GPA 200 ppm” value in series [3] is listed as “B (Less than 80)”.
The matching figures for `O=C(Nc1ccc(-c2ncn(-c3ccc(OC(F)(F)F)cc3)n2)cc1)Oc1ccccc1` [Compound 122]: “A (50-100)”, “A (50-100)” and “B (Less than 80)”.
The matching figures for `Cc1ccc(OC(=O)Nc2ccc(-c3ncn(-c4ccc(OC(F)(F)F)cc4)n3)cc2)cn1` [Compound 123]: “B (Less than 50)”, “B (Less than 50)” and “B (Less than 80)”.
As for `O=C(Nc1ccc(-c2ncn(-c3ccc(OC(F)(F)F)cc3)n2)cc1)Oc1ccccc1C(F)(F)F` [Compound 124], in series [1], the “% Mortality BAW 50 μg/cm^2” value was “A (50-100)”. The “% Mortality CEW 50 μg/cm^2” value in series [2] is “A (50-100)”. In series [3], the “% Mortality GPA 200 ppm” value was “B (Less than 80)”.
As for `Cc1cc(Cl)ccc1OC(=O)Nc1ccc(-c2ncn(-c3ccc(OC(F)(F)F)cc3)n2)cc1` [Compound 128], in series [1], the “% Mortality BAW 50 μg/cm^2” value is on record as “A (50-100)”. In series [2], the “% Mortality CEW 50 μg/cm^2” value is “A (50-100)”. In series [3], the “% Mortality GPA 200 ppm” value is “B (Less than 80)”.
In the case of `O=C(Nc1ccc(-c2ncn(-c3ccc(OC(F)(F)F)cc3)n2)cc1)Oc1cccc(-c2ccccc2)c1` [Compound 129], the “% Mortality BAW 50 μg/cm^2” value in series [1] is “A (50-100)”. In series [2], the “% Mortality CEW 50 μg/cm^2” value is given as “A (50-100)”. In series [3], the “% Mortality GPA 200 ppm” value is recorded as “B (Less than 80)”.
Take `CCN(C(=O)OC(C)c1ccc(C(F)(F)F)nc1)c1ccc(-c2ncn(-c3ccc(OC(F)(F)F)cc3)n2)cc1` (stereo not drawn) [Compound 130, 1-(6-(trifluoromethyl)pyridin-3-yl)ethyl ethyl(4-(1-(4-(trifluoromethoxy)phenyl)-1H-1,2,4-triazol-3-yl)phenyl)carbamate]: in series [1], the “% Mortality BAW 50 μg/cm^2” value was “A (50-100)”. The “% Mortality CEW 50 μg/cm^2” value in series [2] is listed as “A (50-100)”. Moreover, the “% Mortality GPA 200 ppm” value in series [3] is listed as “B (Less than 80)”.
On to `COC(=S)Nc1ccc(-c2ncn(-c3ccc(OC(F)(F)F)cc3)n2)cc1` [Compound 132, O-methyl 4-(1-(4-(trifluoromethoxy)phenyl)-1H-1,2,4-triazol-3-yl)phenylcarbamothioate], for which the “% Mortality BAW 50 μg/cm^2” value in series [1] is reported as “A (50-100)”. For the same compound, the “% Mortality CEW 50 μg/cm^2” value in series [2] is “B (Less than 50)”. Besides, the “% Mortality GPA 200 ppm” value in series [3] is “B (Less than 80)”.
As to `CC(OC(=S)Nc1ccc(-c2ncn(-c3ccc(OC(F)(F)F)cc3)n2)cc1)c1ccc(C(F)(F)F)nc1` (stereo not drawn) [Compound 133, O-1-(6-(trifluoromethyl)pyridin-3-yl)ethyl 4-(1-(4-(trifluoromethoxy)phenyl)-1H-1,2,4-triazol-3-yl)phenylcarbamothioate], the “% Mortality BAW 50 μg/cm^2” value in series [1] is “A (50-100)”. Besides, the “% Mortality CEW 50 μg/cm^2” value in series [2] was “A (50-100)”. In series [3], the “% Mortality GPA 200 ppm” value was “B (Less than 80)”.
`Fc1ccc(OC(=S)Nc2ccc(-c3ncn(-c4ccc(OC(F)(F)F)cc4)n3)cc2)cc1` [Compound 134, O-4-fluorophenyl 4-(1-(4-(trifluoromethoxy)phenyl)-1H-1,2,4-triazol-3-yl)phenylcarbamothioate]: the “% Mortality BAW 50 μg/cm^2” value in series [1] is “B (Less than 50)”. The “% Mortality CEW 50 μg/cm^2” value in series [2] is “B (Less than 50)”. For the same compound, the “% Mortality GPA 200 ppm” value in series [3] is reported as “B (Less than 80)”.
As for `COC(=O)Nc1ccc(-c2ncn(-c3ccc(OC(F)(F)C(F)(F)F)cc3)n2)cc1` [Compound 135, methyl 4-(1-(4-(perfluoroethoxy)phenyl)-1H-1,2,4-triazol-3-yl)phenylcarbamate], in series [1], the “% Mortality BAW 50 μg/cm^2” value is reported as “A (50-100)”. For the same compound, the “% Mortality CEW 50 μg/cm^2” value in series [2] is listed as “A (50-100)”. Also, in series [3], the “% Mortality GPA 200 ppm” value was “B (Less than 80)”.
`CN(C(=O)Oc1ccc([N+](=O)[O-])cc1)c1ccc(-c2ncn(-c3ccc(OC(F)(F)F)cc3)n2)cc1` [Compound 136, methyl-{4-[1-(4-trifluoromethoxyphenyl)-1H-[1,2,4]triazol-3-yl]-phenyl}-carbamic acid 4-nitrophenyl ester]: in series [1], the “% Mortality BAW 50 μg/cm^2” value was “B (Less than 50)”. The “% Mortality CEW 50 μg/cm^2” value in series [2] was “B (Less than 50)”. Moreover, the “% Mortality GPA 200 ppm” value in series [3] was “B (Less than 80)”.
